{"source": "paper PMC7113892", "about": "(Antiviral Research, 2017)", "key": {"[1]": {"molecular_target": "human RNA N7-methyltransferase (RNMT) (Homo sapiens, UniProt O43148)", "sequence (O43148 whole entry, looked up)": "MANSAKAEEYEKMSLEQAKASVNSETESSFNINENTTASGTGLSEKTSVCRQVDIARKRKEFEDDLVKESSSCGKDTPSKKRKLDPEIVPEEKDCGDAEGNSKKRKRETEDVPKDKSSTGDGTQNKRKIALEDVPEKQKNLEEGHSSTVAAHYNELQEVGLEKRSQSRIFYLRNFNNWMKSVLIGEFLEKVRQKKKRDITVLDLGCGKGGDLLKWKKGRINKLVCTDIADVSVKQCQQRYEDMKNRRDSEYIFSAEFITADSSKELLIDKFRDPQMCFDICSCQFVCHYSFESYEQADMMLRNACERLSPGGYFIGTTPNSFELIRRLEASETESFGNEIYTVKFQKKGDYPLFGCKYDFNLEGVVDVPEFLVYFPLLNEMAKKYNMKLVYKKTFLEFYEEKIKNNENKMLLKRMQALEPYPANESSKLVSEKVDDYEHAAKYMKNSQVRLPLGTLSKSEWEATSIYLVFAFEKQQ", "experiment": "biochemical"}, "[2]": {"molecular_target": "DENV-2 NS5-RdRp (Dengue virus type 2, UniProt P14340)", "type": "biochemical", "conditions": "50 μM"}}, "data": [{"smiles": "Nc1ncnc2c1ncn2[C@@H]1O[C@H](C[C@@H](N)CC[C@H](N)C(=O)O)[C@@H](O)[C@H]1O", "note": "[Sinefungin]", "values": [{"measurement": "IC50", "setting": "[1]", "result": "< 50", "unit": "nM"}, {"measurement": "Inhibition of RdRp activity of DENV NS5 (in words)", "setting": "[2]", "result": "no inhibition detected"}]}]}
